The first assay deals with L1210 Leukemia. The experiment in a line: L1210 Leukemia antitumor screening. In kind it is in vivo, Female CDF₁ mice. The conditions noted are these: Dose 10 mg/kg ip in water on day one; ILS ≧ 25% represents activity. As for the experimental part: (§1) Each of the compounds was evaluated in the Sarcoma 180 Ascites screen and at least some of the compounds were also evaluated in the L1210 Leukemia tumor models.
(§2) L1210 screening was conducted according to a published method. […] Female CDF₁ mice (16 - 22 g) were implanted with 1 x 10⁶ tumor cells ip on day zero. Compounds were administered in 0.5 mL water ip on day one. Groups of 6 mice were used for each dose. A control group of mice received only tumor and 0.5 mL water. A positive control group received tumor and 8 mg/kg cisplatin in 0.5 mL 0.15 M NaCl. The test was terminated after three times the mean survival time (MST) of the control group, surviving mice were counted as dying on that day. Activity was determined based on the percent increase in MST of test mice over controls (%ILS). […] The tumor line was maintained through weekly transfer of 5 x 10⁴ cells in DBA/2 mice.
As to cis-[Pt(NH₃)₂(2′-deoxycytidine)Cl]NO₃, the “%ILS” value came to 12%.

Still in this assay, the particulars now being: Dose 10 mg/kg ip; survivors per group of 6 mice at three times the MST of controls.
As to cis-[Pt(NH₃)₂(2′-deoxycytidine)Cl]NO₃, the Surv is 0/6.

The same assay, now with this note: Dose 20 mg/kg ip in water on day one; ILS ≧ 25% represents activity.
As for cis-[Pt(NH₃)₂(2′-deoxycytidine)Cl]NO₃, the “%ILS” value was found to be 23%.

Still in this assay, the particulars now being: Dose 20 mg/kg ip; survivors per group of 6 mice at three times the MST of controls.
On to cis-[Pt(NH₃)₂(2′-deoxycytidine)Cl]NO₃, for which the Surv is listed as 0/6.

Still in this assay, the particulars now being: Dose 40 mg/kg ip in water on day one; ILS ≧ 25% represents activity.
For cis-[Pt(NH₃)₂(2′-deoxycytidine)Cl]NO₃, the “%ILS” value amounted to 26%.

Staying with this assay, now noted: Dose 40 mg/kg ip; survivors per group of 6 mice at three times the MST of controls.
As to cis-[Pt(NH₃)₂(2′-deoxycytidine)Cl]NO₃, the Surv is given as 0/6.

Still in this assay, the particulars now being: Dose 80 mg/kg ip in water on day one; ILS ≧ 25% represents activity.
As to cis-[Pt(NH₃)₂(2′-deoxycytidine)Cl]NO₃, the “%ILS” value is recorded as 44%.

Staying with this assay, now noted: Dose 80 mg/kg ip; survivors per group of 6 mice at three times the MST of controls.
Regarding cis-[Pt(NH₃)₂(2′-deoxycytidine)Cl]NO₃, the Surv was 0/6.

The same assay, now with this note: Dose 160 mg/kg ip in water on day one; ILS ≧ 25% represents activity.
Regarding cis-[Pt(NH₃)₂(2′-deoxycytidine)Cl]NO₃, the “%ILS” value worked out at 41%.

The same assay, now with this note: Dose 160 mg/kg ip; survivors per group of 6 mice at three times the MST of controls.
Consider cis-[Pt(NH₃)₂(2′-deoxycytidine)Cl]NO₃, for which the Surv is reported as 0/6.

Still in this assay, the particulars now being: Dose 320 mg/kg ip in water on day one; ILS ≧ 25% represents activity.
In the case of cis-[Pt(NH₃)₂(2′-deoxycytidine)Cl]NO₃, the “%ILS” value is listed as 59%.

Still in this assay, the particulars now being: Dose 320 mg/kg ip; survivors per group of 6 mice at three times the MST of controls.
Take cis-[Pt(NH₃)₂(2′-deoxycytidine)Cl]NO₃: the Surv is reported as 0/6.

In another assay the test system is Sarcoma 180 Ascites. As to the kind of experiment: Sarcoma 180 Ascites (S180a) antitumor screening. The class given is in vivo, Female CFW mice. The conditions noted are these: Dose 10 mg/kg ip in water on day one; ILS ≧ 50% indicates activity. As for the experimental part:
as §1, §2
Female CFW mice (18 - 25 g) were implanted with 2 x 10⁶ cells ip on day zero. Compounds were administered in 0.5 mL water ip on day one. Groups of 6 mice were used for each test dose as well as controls as defined above. The test was run for twice the MST of the control group, with survivors counted as dying on that day. An ILS of ≧ 50% indicates activity. The tumor line was maintained through weekly transfer of 4 x 10⁶ cells in CFW mice.
Turning to `N.N.Nc1ccn(C2CC(O)C(CO)O2)c(=O)n1.[Cl-].[Cl-].[Pt+2]` (stereo not drawn) [cis-[Pt(NH₃)₂(2′-deoxycytidine)Cl]Cl], the “%ILS” value came out at 10%.
Regarding `Nc1ccn(C2OC(CO)C(O)C2O)c(=O)[n+]1[Pt]([NH2])([NH2])[Cl].O=[N+]([O-])[O-]` (stereo not drawn) [cis-[Pt(NH₃)₂(cytidine)Cl]NO₃], the “%ILS” value was found to be 6%.
As to cis-[Pt(NH₃)₂(2′-deoxyguanosine)Cl]Cl, the “%ILS” value is 2%.

Still in this assay, the particulars now being: Dose 10 mg/kg ip; survivors per group of 6 mice at twice the MST of controls.
`N.N.Nc1ccn(C2CC(O)C(CO)O2)c(=O)n1.[Cl-].[Cl-].[Pt+2]` (stereo not drawn) [cis-[Pt(NH₃)₂(2′-deoxycytidine)Cl]Cl]: the Surv is 0/6.
`Nc1ccn(C2OC(CO)C(O)C2O)c(=O)[n+]1[Pt]([NH2])([NH2])[Cl].O=[N+]([O-])[O-]` (stereo not drawn) [cis-[Pt(NH₃)₂(cytidine)Cl]NO₃]: the Surv is reported as 0/6.
Regarding cis-[Pt(NH₃)₂(2′-deoxyguanosine)Cl]Cl, the Surv is reported as 0/6.

The same assay, now with this note: Dose 20 mg/kg ip in water on day one; ILS ≧ 50% indicates activity.
For `N.N.Nc1ccn(C2CC(O)C(CO)O2)c(=O)n1.[Cl-].[Cl-].[Pt+2]` (stereo not drawn) [cis-[Pt(NH₃)₂(2′-deoxycytidine)Cl]Cl], the “%ILS” value was determined as 34%.
With `Nc1ccn(C2OC(CO)C(O)C2O)c(=O)[n+]1[Pt]([NH2])([NH2])[Cl].O=[N+]([O-])[O-]` (stereo not drawn) [cis-[Pt(NH₃)₂(cytidine)Cl]NO₃], the “%ILS” value worked out at 1%.
Take cis-[Pt(NH₃)₂(2′-deoxyguanosine)Cl]Cl: the “%ILS” value amounted to 15%.

Staying with this assay, now noted: Dose 20 mg/kg ip; survivors per group of 6 mice at twice the MST of controls.
Regarding `N.N.Nc1ccn(C2CC(O)C(CO)O2)c(=O)n1.[Cl-].[Cl-].[Pt+2]` (stereo not drawn) [cis-[Pt(NH₃)₂(2′-deoxycytidine)Cl]Cl], the Surv is 0/6.
On to `Nc1ccn(C2OC(CO)C(O)C2O)c(=O)[n+]1[Pt]([NH2])([NH2])[Cl].O=[N+]([O-])[O-]` (stereo not drawn) [cis-[Pt(NH₃)₂(cytidine)Cl]NO₃], for which the Surv is on record as 0/6.
Regarding cis-[Pt(NH₃)₂(2′-deoxyguanosine)Cl]Cl, the Surv is 1/6.

The assay is the same for the next values; noted with them: Dose 40 mg/kg ip in water on day one; ILS ≧ 50% indicates activity.
Regarding `N.N.Nc1ccn(C2CC(O)C(CO)O2)c(=O)n1.[Cl-].[Cl-].[Pt+2]` (stereo not drawn) [cis-[Pt(NH₃)₂(2′-deoxycytidine)Cl]Cl], the “%ILS” value is on record as 61%.
As for `Nc1ccn(C2OC(CO)C(O)C2O)c(=O)[n+]1[Pt]([NH2])([NH2])[Cl].O=[N+]([O-])[O-]` (stereo not drawn) [cis-[Pt(NH₃)₂(cytidine)Cl]NO₃], the “%ILS” value is listed as -4%.
As for cis-[Pt(NH₃)₂(2′-deoxyguanosine)Cl]Cl, the “%ILS” value was 76%.

The assay is the same for the next values; noted with them: Dose 40 mg/kg ip; survivors per group of 6 mice at twice the MST of controls.
In the case of `N.N.Nc1ccn(C2CC(O)C(CO)O2)c(=O)n1.[Cl-].[Cl-].[Pt+2]` (stereo not drawn) [cis-[Pt(NH₃)₂(2′-deoxycytidine)Cl]Cl], the Surv is 2/6.
Same read-out and setting: the same measure for `Nc1ccn(C2OC(CO)C(O)C2O)c(=O)[n+]1[Pt]([NH2])([NH2])[Cl].O=[N+]([O-])[O-]` (stereo not drawn) [cis-[Pt(NH₃)₂(cytidine)Cl]NO₃]: 0/6; for cis-[Pt(NH₃)₂(2′-deoxyguanosine)Cl]Cl: 4/6.

Still in this assay, the particulars now being: Dose 80 mg/kg ip in water on day one; ILS ≧ 50% indicates activity.
Turning to `N.N.Nc1ccn(C2CC(O)C(CO)O2)c(=O)n1.[Cl-].[Cl-].[Pt+2]` (stereo not drawn) [cis-[Pt(NH₃)₂(2′-deoxycytidine)Cl]Cl], the “%ILS” value was 85%.
With `Nc1ccn(C2OC(CO)C(O)C2O)c(=O)[n+]1[Pt]([NH2])([NH2])[Cl].O=[N+]([O-])[O-]` (stereo not drawn) [cis-[Pt(NH₃)₂(cytidine)Cl]NO₃], the “%ILS” value is recorded as -7%.
For cis-[Pt(NH₃)₂(2′-deoxyguanosine)Cl]Cl, the “%ILS” value is 88%.

The assay is the same for the next values; noted with them: Dose 80 mg/kg ip; survivors per group of 6 mice at twice the MST of controls.
As to `N.N.Nc1ccn(C2CC(O)C(CO)O2)c(=O)n1.[Cl-].[Cl-].[Pt+2]` (stereo not drawn) [cis-[Pt(NH₃)₂(2′-deoxycytidine)Cl]Cl], the Surv is 3/6.
As to `Nc1ccn(C2OC(CO)C(O)C2O)c(=O)[n+]1[Pt]([NH2])([NH2])[Cl].O=[N+]([O-])[O-]` (stereo not drawn) [cis-[Pt(NH₃)₂(cytidine)Cl]NO₃], the Surv is 0/6.
Still for that read-out and setting: the same measure for cis-[Pt(NH₃)₂(2′-deoxyguanosine)Cl]Cl: 4/6.

Staying with this assay, now noted: Dose 160 mg/kg ip in water on day one; ILS ≧ 50% indicates activity.
With `N.N.Nc1ccn(C2CC(O)C(CO)O2)c(=O)n1.[Cl-].[Cl-].[Pt+2]` (stereo not drawn) [cis-[Pt(NH₃)₂(2′-deoxycytidine)Cl]Cl], the “%ILS” value is 76%.
Regarding `Nc1ccn(C2OC(CO)C(O)C2O)c(=O)[n+]1[Pt]([NH2])([NH2])[Cl].O=[N+]([O-])[O-]` (stereo not drawn) [cis-[Pt(NH₃)₂(cytidine)Cl]NO₃], the “%ILS” value came to 8%.
With cis-[Pt(NH₃)₂(2′-deoxyguanosine)Cl]Cl, the “%ILS” value is reported as 85%.

The assay is the same for the next values; noted with them: Dose 160 mg/kg ip; survivors per group of 6 mice at twice the MST of controls.
For the compound `N.N.Nc1ccn(C2CC(O)C(CO)O2)c(=O)n1.[Cl-].[Cl-].[Pt+2]` (stereo not drawn) [cis-[Pt(NH₃)₂(2′-deoxycytidine)Cl]Cl], the Surv is listed as 4/6.
`Nc1ccn(C2OC(CO)C(O)C2O)c(=O)[n+]1[Pt]([NH2])([NH2])[Cl].O=[N+]([O-])[O-]` (stereo not drawn) [cis-[Pt(NH₃)₂(cytidine)Cl]NO₃]: the Surv was 0/6.
The same measure, in the same setting: to cis-[Pt(NH₃)₂(2′-deoxyguanosine)Cl]Cl belongs 4/6.

Staying with this assay, now noted: Dose 320 mg/kg ip in water on day one; ILS ≧ 50% indicates activity.
As to `N.N.Nc1ccn(C2CC(O)C(CO)O2)c(=O)n1.[Cl-].[Cl-].[Pt+2]` (stereo not drawn) [cis-[Pt(NH₃)₂(2′-deoxycytidine)Cl]Cl], the “%ILS” value was determined as 51%.
The same measure, in the same setting: to `Nc1ccn(C2OC(CO)C(O)C2O)c(=O)[n+]1[Pt]([NH2])([NH2])[Cl].O=[N+]([O-])[O-]` (stereo not drawn) [cis-[Pt(NH₃)₂(cytidine)Cl]NO₃] belongs 30%; to cis-[Pt(NH₃)₂(2′-deoxyguanosine)Cl]Cl, 6%.

Still in this assay, the particulars now being: Dose 320 mg/kg ip; survivors per group of 6 mice at twice the MST of controls.
Regarding `N.N.Nc1ccn(C2CC(O)C(CO)O2)c(=O)n1.[Cl-].[Cl-].[Pt+2]` (stereo not drawn) [cis-[Pt(NH₃)₂(2′-deoxycytidine)Cl]Cl], the Surv was 1/6.
On the same count and under the same terms, to `Nc1ccn(C2OC(CO)C(O)C2O)c(=O)[n+]1[Pt]([NH2])([NH2])[Cl].O=[N+]([O-])[O-]` (stereo not drawn) [cis-[Pt(NH₃)₂(cytidine)Cl]NO₃] belongs 0/6.
On the same count and under the same terms, to cis-[Pt(NH₃)₂(2′-deoxyguanosine)Cl]Cl belongs 2/6.

Values taken from patent publication EP0303437A2, “Platinum triamine compounds containing nucleotides or nucleosides as antitumor agents” (ENGELHARD CORPORATION, priority 1987, dated 1989).
